Test results from PubChem BioAssay AID1259407 (Chemical Carcinogenesis Research Information System (CCRIS), 2018).
The source made the active and inactive calls. No rule for the calls is given here.

System: CCRIS mutagenicity, Ames/micronucleus/aberration tests
Assay: CCRIS mutagenicity studies

In the case of CN(C)P(=O)(N(C)C)N(C)C, the mutagenic call (Test System: AMES SALMONELLA TYPHIMURIUM, Strain/Indicator: TA1535, Metabolic Activation: HAMSTER LIVER S-9, AROCLOR 1254 (10 OR 30%), Method: PREINCUBATION) is reported as “inactive; negative”, the mutagenic call (Test System: AMES SALMONELLA TYPHIMURIUM, Strain/Indicator: TA1535, Metabolic Activation: NONE, Method: PREINCUBATION) is reported as “inactive; negative” and the mutagenic call (Test System: AMES SALMONELLA TYPHIMURIUM, Strain/Indicator: TA1535, Metabolic Activation: NONE, Method: STANDARD PLATE) is reported as “inactive; negative”. The mutagenic call (Test System: AMES SALMONELLA TYPHIMURIUM, Strain/Indicator: TA1535, Metabolic Activation: RAT LIVER S-9, AROCLOR 1254 (10 OR 30%), Method: PREINCUBATION) was “inactive; negative”, the mutagenic call (Test System: AMES SALMONELLA TYPHIMURIUM, Strain/Indicator: TA1535, Metabolic Activation: RAT, LIVER, S-9, AROCLOR 1254, Method: STANDARD PLATE) was “inactive; negative” and the mutagenic call (Test System: AMES SALMONELLA TYPHIMURIUM, Strain/Indicator: TA1537, Metabolic Activation: NONE, Method: STANDARD PLATE) was “inactive; negative”. For the same compound, the mutagenic call (Test System: AMES SALMONELLA TYPHIMURIUM, Strain/Indicator: TA1537, Metabolic Activation: RAT, LIVER, S-9, AROCLOR 1254, Method: STANDARD PLATE) was “inactive; negative”, the mutagenic call (Test System: AMES SALMONELLA TYPHIMURIUM, Strain/Indicator: TA1537, Metabolic Activation: RAT, LIVER, S-9, AROCLOR 1254, Method: SUSPENSION) was “active; positive” and the mutagenic call (Test System: AMES SALMONELLA TYPHIMURIUM, Strain/Indicator: TA1538, Metabolic Activation: NONE, Method: STANDARD PLATE) was “inactive; negative”. The mutagenic call (Test System: AMES SALMONELLA TYPHIMURIUM, Strain/Indicator: TA1538, Metabolic Activation: RAT, LIVER, S-9, AROCLOR 1254, Method: STANDARD PLATE) was “inactive; negative”, the mutagenic call (Test System: CHINESE HAMSTER OVARY, Strain/Indicator: CHO/6-THIOGUANINE, Metabolic Activation: HAMSTER EMBRYO CELL-MEDIATED) was “inactive; negative” and the mutagenic call (Test System: CHINESE HAMSTER OVARY, Strain/Indicator: CHO/6-THIOGUANINE, Metabolic Activation: NONE) was “inactive; negative”. For the same compound, the mutagenic call (Test System: CHINESE HAMSTER OVARY, Strain/Indicator: CHO/OUABAIN, Metabolic Activation: HAMSTER EMBRYO CELL-MEDIATED) was “inactive; negative”, the mutagenic call (Test System: CHINESE HAMSTER OVARY, Strain/Indicator: CHO/OUABAIN, Metabolic Activation: NONE) was “inactive; negative” and the mutagenic call (Test System: CHINESE HAMSTER V-79, Strain/Indicator: V-79 (HGPRT)/6-THIOGUANINE, Metabolic Activation: NONE) was “inactive; negative”. For the same compound, the mutagenic call (Test System: CHINESE HAMSTER V-79, Strain/Indicator: V-79 (HGPRT)/6-THIOGUANINE, Metabolic Activation: RAT, LIVER, S-9, PHENOBARBITAL AND BETA-NAPHTHOFLAVONE) was “inactive; negative”, the mutagenic call (Test System: CHINESE HAMSTER V-79, Strain/Indicator: V-79/6-THIOGUANINE, Metabolic Activation: NONE, Method: REPLATING) was “active; positive” and the mutagenic call (Test System: CHINESE HAMSTER V-79, Strain/Indicator: V-79/OUABAIN, Metabolic Activation: HAMSTER EMBRYO CELL-MEDIATED) was “inactive; negative”. For the same compound, the mutagenic call (Test System: CHINESE HAMSTER V-79, Strain/Indicator: V-79/OUABAIN, Metabolic Activation: RAT, LIVER, S-15, PHENOBARBITAL AND 5,6-BENZOFLAVONE) was “inactive; negative”, the mutagenic call (Test System: MOUSE LYMPHOMA, Strain/Indicator: L5178Y (TK+/+)/OUABAIN, Metabolic Activation: NONE, Method: SUSPENSION/PLATE) was “active; positive” and the mutagenic call (Test System: MOUSE LYMPHOMA, Strain/Indicator: L5178Y (TK+/-)/TRIFLUOROTHYMIDINE, Metabolic Activation: RAT LIVER S-9, AROCLOR 1254, Method: SUSPENSION/PLATE) was “inactive; negative”. For the same compound, the mutagenic call (Test System: MOUSE LYMPHOMA, Strain/Indicator: L5178Y (TK+/-)/TRIFLUROTHYMIDINE, Metabolic Activation: NONE, Method: SUSPENSION/PLATE) was “active; positive”, the mutagenic call (Test System: MOUSE LYMPHOMA, Strain/Indicator: L5178Y (TK+/TK-), Metabolic Activation: NONE, Method: MICROWELL) was “active; positive” and the mutagenic call (Test System: MOUSE LYMPHOMA, Strain/Indicator: L5178Y (TK+/TK-), Metabolic Activation: RAT, LIVER, S-9, AROCLOR 1254, Method: SUSPENSION/PLATE) was “inactive; negative”. The mutagenic call (Test System: MOUSE LYMPHOMA, Strain/Indicator: L5178Y (TK+/TK-), Metabolic Activation: RAT, LIVER, S-9, Method: SUSPENSION/PLATE) was “inactive; negative”, the mutagenic call (Test System: MOUSE LYMPHOMA, Strain/Indicator: L5178Y (TK+/TK-), Metabolic Activation: S-9, Method: MICROWELL) was “active; positive” and the mutagenic call (Test System: UDS RAT HEPATOCYTES, Strain/Indicator: THY INCORP, Metabolic Activation: NONE, Method: LIQUID SCINTILLATION COUNTING) was “active; positive”.
